Results on five compounds are retold here after PubChem BioAssay (NCI).

Holding throughout (experiment): inhibition of tumour cell growth, NCI panel, 48 h
Assay [1] has as its system T-47D breast.
Assay [2] has as its system SNB-75 CNS.
The subject of assay [3] is NCI/ADR-RES ovarian.
For assay [4], the system named is SK-MEL-2 melanoma.
Assay [5] concerns HOP-92 NSCLC.
In assay [6] the test system is MDA-MB-435.
The subject of assay [7] is NCI-H460 lung.
Assay [8] relates to U251 CNS.
In assay [9] the test system is MCF7 breast.
Assay [10] concerns HS 578T breast.
Assay [11] relates to NCI-H226 lung.
Assay [12] relates to SF-295 CNS.
Assay [13] deals with SK-MEL-5 melanoma.
In assay [14] the test system is MDA-MB-231 breast.
Assay [15] relates to DMS 273 small cell lung.
Assay [16] concerns LXFL 529 NSCLC.
Assay [17] concerns M19-MEL melanoma.
Assay [18] relates to HOP-18 NSCLC.
Assay [19] deals with MALME-3M melanoma.
Assay [20] has as its system DLD-1 colon.

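Assay format: 96-well plates, 48-hour exposure. The concentration for full growth arrest is given as TGI.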 A value given as a limit tells only on which side of the number the result lay.

`COc1cccc(CC2Cc3ccccc3CC(=O)N2)c1` (stereo unspecified): the TGI in assay [1], in [2], in assay [3], in assay [4], in assay [5] and in assay [6] was over 100 µM in each case. Besides, the TGI in assay [7] was 72.8 µM; in [8] it was over 100 µM; in [9], 92 µM; in [10] it was 68.2 µM; in [11], over 100 µM; in assay [12] it was over 100 µM. The TGI in assay [13] was determined as 54.6 µM; in [14], 79.2 µM.

Regarding `c1ccc(-c2nnc(-c3nsc4ccccc34)o2)cc1`, the TGI was over 100 µM in assay [15]; 19.7 µM in assay [2]; over 100 µM in [4]; over 100 µM in [5]; over 100 µM in assay [16]; over 100 µM in assay [8]. The TGI in [17] and in assay [13] was over 100 µM in each case.

For the compound `NC(CCOCCP(=O)(O)CCOCCC(N)C(=O)O)C(=O)O` (stereo unspecified), the TGI in assay [1], in assay [2], in [3], in assay [4], in assay [5] and in [6] was over 100 µM in each case. Also, the TGI in [7], in [8], in [9], in [10], in [12] and in [13] was over 100 µM in each case. Further, the TGI in [14] is over 100 µM.

With `CCOC(=O)C1=C(C)N(NC(N)=O)C2(O)CCCC(=O)C12C` (stereo unspecified), the TGI in [15], in assay [18], in assay [2], in [4], in assay [5] and in [16] was over 100 µM throughout. Also, the TGI in assay [8], in assay [11], in assay [12], in assay [19], in [20] and in assay [13] was over 100 µM in each case.

For the compound `O=C1OCc2cccc3c2-c2c1cccc2C(=O)OC3`, the TGI is over 100 µM in assay [18]; over 100 µM in assay [4]; 92.2 µM in assay [5]; over 100 µM in assay [8]; over 100 µM in [17]; over 100 µM in assay [12]. Also, the TGI in [19], in [20] and in assay [13] was over 100 µM each time.
